Results from patent publication US11166942B2 (PRAXIS BIOTECH LLC, priority 2018, dated 2021).
pIC50: −log10 of the molar value.

What was measured:
[1] = system: hippocampal slices from transgenic APP/PS1 mice; test: Electrophysiology and long-term potentiation in hippocampal slices; conditions: slices from APP/PS1 mouse, 5 μM, 20 min before stimulation (FIGS. 5A, 5B)
Procedure: Hippocampal slices were prepared as described in Ardiles et al., Pannexin 1 regulates bidirectional hippocampal synaptic plasticity in adult mice. Front Cell Neurosci, vol. 8, art. 326 (2014). Six to nine-month-old WT C57BL/6 or transgenic APP/PS1 mice (Jackson Lab 34829-JAX) were deeply anesthetized with isoflurane and their brains were quickly removed. 5-10 slices (350 μm) from each animal were dissected in ice-cold dissection buffer using a vibratome (Leica VT1200S, Leica Microsystems, Nussloch, Germany). Slices were incubated with 5 μM ISRIB (trans-N,N′-1,4-cyclohexanediylbis[2-(4-chlorophenoxy)-acetamide) or a vehicle (complete medium containing 0.1% DMSO) 20 min before conditioning stimulation. Synaptic responses were evoked by stimulating the Schaffer collaterals with 0.2 ms pulses delivered through concentric bipolar stimulating electrodes, and recorded extracellularly in the stratum radiatum of the CA1 subfield. Long-term potentiation (LTP) was induced by four-theta burst stimulation (TBS) (10 trains of four pulses at 100 Hz; 5 Hz inter-burst interval) delivered at 0.1 Hz. LTP magnitude based on field excitatory postsynaptic potential (fEPSP) was calculated as the average (normalized to baseline) of the responses recorded 60 min after conditioning stimulation. Similar experiments can be performed using a test compound in place of ISRIB.

HEK293T cells = test: Recovery of protein translation in stressed HEK293T cells; format: cell-based, human; conditions: up to 200-fold its IC50 value (FIG. 2)
Description: Despite the great potency on the inhibition of ATF4 expression, ISRIB is not able to completely restore protein synthesis when the global protein translation is decreased under these stress conditions. […] Compound 4 has a great potency for the inhibition of ATF4 expression under stress condition (FIG. 3) and is much better at restoring global protein translation under ER stress-mediated repression and going beyond a 100% recovery (FIG. 4).

ATF4 = ATF4 expression inhibition assay (ATF4 5'UTR luciferase reporter, Tg-stressed HEK293T cells); format: cell-based, human; conditions: 100 nM thapsigargin, 3 hours, HEK293T ATF4 luciferase reporter; read-out: ATF4 inhbition IC50
Summary of the method: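 HEK293T stably expressing luciferase fused downstream of human full-length ATF4 5′UTR, stressed with 100 nM thapsigargin plus compound (100 nM or 1 μM; IC50 series 0.1 nM to 1 μM) for 3 h at 37° C. Luminescence normalized to Tg alone (0%) and untreated cells (100% inhibition).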

In the case of `O=C(COc1ccc(Cl)cc1)N[C@H]1CC[C@H](NC(=O)COc2ccc(Cl)cc2)CC1` [ISRIB, reference compound], the “long-term potentiation (LTP, fEPSP slope) 60 min after theta burst stimulation” value [1] was “partial LTP recovery”, the “restoration of protein translation in stressed cells” value (HEK293T cells) was “only partially restores protein translation” and the pIC50 (ATF4) was 8.30.
